# What was measured:
# [1] = Ready-to-use formulation stability at 40° C./75% RH, 5 mg/mL (R,R)-pyrodach-2 in 10 mM Sodium Phosphate Buffer, 5.2 mM Sodium Pyrophosphate at pH 7.5, 10 mL vials; format: physicochemical
# Procedure: Stability data on the formulation with added pyrophosphate at 40° C./75% RH in Table 12 is even more dramatic. […] [table] [table] • Transfer 1419.6 mg±14.0 mg of dibasic sodium phosphate anhydrous to a 1-L volumetric flask. • Transfer 2298.5 mg±23.0 mg of tetrasodium pyrophosphate decahydrate into the same 1-L volumetric flask. • Fill flask to approximately 75% volume with sterile water for injection, swirl as needed to dissolve all solids. • Volumetrically transfer 8.0 mL of 1N NaOH to flask. • Dilute flask to volume with water and mix well. • Record the pH of final solution. This is the vehicle. • Determine the tare weight of a 500-mL compounding vessel with stir bar. • Transfer 2500.1 mg±25.0 mg of (R,R)-pyrodach-2 to the vessel. • Transfer 450.0 g±0.1 g of the vehicle to the vessel and stir to dissolve solids. • Determine the initial pH of the solution. • Slowly adjust the pH of the solution to 7.5±0.1 by adding additional N NaOH. • Determine the gross solution weight and dilute the solution weight to 500.0 g±0.1 g by adding additional vehicle into the compounding vessel. Density=1.00 g/mL. • Stir the final solution for an additional 5 minutes. • Determine the pH of final solution. • Pass the entire solution through a 0.22 μm PVDF Stericup filter into a sterile collection vessel. • Conduct the following in a laminar flow hood; fill 10-mL sterile tubing vials with 10 mL of solution, stoppered with a sterile Flurotec stopper, and crimp-capped with a flip-off seal. • Place vials in 40° C./75% RH and 25° C./60% RH stability chambers. HPLC method in Example 3 to monitor purity and impurities.
# [2] = cited from earlier work
# [3] = Design of Experiment study on pyrophosphate ion stabilization, stability at 60° C.; format: physicochemical; settings: added pyrophosphate ion as little as ~0.25 molar equivalent
# Excerpt: Specifically the presence of pyrophosphate results in the rapid disappearance of the (R,R)-pyrodach-2 dimer impurity and the RRT-3.1-3.2 impurity.
# [4] = Hydrolytic degradation of (R,R)-pyrodach-2 in aqueous solution; format: physicochemical; settings: acidic aqueous conditions
# Excerpt: Thus, simple dissolution of (R,R)-pyrodach-2 affords an acidic solution. […] At higher pHs, where the acid groups of (R,R)-pyrodach-2 are ionized, the solubility of (R,R)-pyrodach-2 increases. In addition, deprotonation of the acid groups in (R,R)-pyrodach-2 dramatically reduces the rate of hydrolytic degradation. The two pKa values of (R,R)-pyrodach-2 indicate that an aqueous solution of (R,R)-pyrodach-2 in the physiological pH range of 7.0-7.5 will have no buffering capacity. Thus, controlling the pH of an aqueous solution in the physiological pH range, much less the accurate and reproducible preparation of aqueous (R,R)-pyrodach-2 solutions in this pH range by pH adjustment of an aqueous solution of (R,R)-pyrodach-2 with hydroxide base, is extremely difficult. […] This presents a unique challenge as the pyrophosphate ligand in (R,R)-pyrodach-2 is kinetically labile in solution and can potentially undergo reaction with anions present in many buffers. Table 1 summarizes the decrease in potency measured by HPLC of aqueous 1 mg/mL (R,R)-pyrodach-2 solutions in a variety of buffers at ambient temperature.
# [5] = Precipitation of (R,R)-pyrodach-2 dimer from 5 mg/mL ready-to-use formulation on storage at 2-8° C.; format: physicochemical; settings: 5 mg/mL formulation per Example 6, initial dimer ~0.6 area %
# Procedure: • Transfer 4564.6 mg±0.5 mg of potassium phosphate dibasic, trihydrate to a 2-L volumetric flask. • Fill flask to approximately 75% volume with water, swirl as needed to dissolve all solids. • Volumetrically transfer 32.0 mL of 1N KOH to flask. • Dilute flask to volume with water and mix well. • Record pH of final solution. This is the diluent. • Transfer 7653.1 mg±0.5 mg of (R,R)-pyrodach-2 to a compounding vessel. • Transfer 1500 mL of the diluent to the vessel and stir to dissolve solids. • Record pH of final solution. • Pass entire solution through a 0.22 μm sterile filter membrane into a sterile collection vessel. • Calculate (R,R)-pyrodach-2 solution concentration
smiles,measurement,setting,value
"O=P1(O)OP(=O)(O)[O][Pt]2([NH][C@@H]3CCCC[C@H]3[NH]2)[O]1 (stereo partly drawn) [(R,R)-pyrodach-2, (R,R)-trans-1,2-cyclohexanediamine-(dihydrogenpyrophosphato)platinum(II)]",Individual Related Substances PT-112 Dimer,[1]; 1 Month,"ND (ND = Not Detected, or <0.05%)"
same,Individual Related Substances RRT 0.28-0.29,[1]; 1 Month,0.10%
same,Individual Related Substances RRT 0.50-0.51,[1]; 1 Month,0.10%
same,Individual Related Substances RRT 0.58,[1]; 1 Month,0.41%
same,Individual Related Substances RRT 0.73-0.74,[1]; 1 Month,0.68%
same,Individual Related Substances RRT 0.92,[1]; 1 Month,"ND (ND = Not Detected, or <0.05%)"
same,Individual Related Substances RRT 1.57,[1]; 1 Month,"ND (ND = Not Detected, or <0.05%)"
same,Individual Related Substances RRT 3.66-3.71,[1]; 1 Month,"ND (ND = Not Detected, or <0.05%)"
same,Potency (Assay),[1]; 1 Month,101.6%
same,Total Related Substances,[1]; 1 Month,1.3%
same,pH,[1]; 1 Month,7.6
same,Individual Related Substances PT-112 Dimer,[1]; 2 Months,"ND (ND = Not Detected, or <0.05%)"
same,Individual Related Substances RRT 0.28-0.29,[1]; 2 Months,0.19%
same,Individual Related Substances RRT 0.50-0.51,[1]; 2 Months,0.19%
same,Individual Related Substances RRT 0.58,[1]; 2 Months,0.41%
same,Individual Related Substances RRT 0.73-0.74,[1]; 2 Months,0.88%
same,Individual Related Substances RRT 0.92,[1]; 2 Months,"ND (ND = Not Detected, or <0.05%)"
same,Individual Related Substances RRT 1.57,[1]; 2 Months,"ND (ND = Not Detected, or <0.05%)"
same,Individual Related Substances RRT 3.66-3.71,[1]; 2 Months,0.07%
same,Potency (Assay),[1]; 2 Months,103.8%
same,Total Related Substances,[1]; 2 Months,1.7%
same,pH,[1]; 2 Months,7.6
same,Individual Related Substances PT-112 Dimer,[1]; 3 Months,"ND (ND = Not Detected, or <0.05%)"
same,Individual Related Substances RRT 0.28-0.29,[1]; 3 Months,0.16%
same,Individual Related Substances RRT 0.50-0.51,[1]; 3 Months,0.16%
same,Individual Related Substances RRT 0.58,[1]; 3 Months,0.48%
same,Individual Related Substances RRT 0.73-0.74,[1]; 3 Months,0.86%
same,Individual Related Substances RRT 0.92,[1]; 3 Months,"ND (ND = Not Detected, or <0.05%)"
same,Individual Related Substances RRT 1.57,[1]; 3 Months,"ND (ND = Not Detected, or <0.05%)"
same,Individual Related Substances RRT 3.66-3.71,[1]; 3 Months,0.11%
same,Potency (Assay),[1]; 3 Months,101.5%
same,Total Related Substances,[1]; 3 Months,1.8%
same,pH,[1]; 3 Months,7.5
same,Individual Related Substances PT-112 Dimer,[1]; 6 Months,"ND (ND = Not Detected, or <0.05%)"
same,Individual Related Substances RRT 0.28-0.29,[1]; 6 Months,0.17%
same,Individual Related Substances RRT 0.50-0.51,[1]; 6 Months,0.22%
same,Individual Related Substances RRT 0.58,[1]; 6 Months,0.47%
same,Individual Related Substances RRT 0.73-0.74,[1]; 6 Months,0.81%
same,Individual Related Substances RRT 0.92,[1]; 6 Months,"ND (ND = Not Detected, or <0.05%)"
same,Individual Related Substances RRT 1.57,[1]; 6 Months,"ND (ND = Not Detected, or <0.05%)"
same,Individual Related Substances RRT 3.66-3.71,[1]; 6 Months,0.18%
same,Potency (Assay),[1]; 6 Months,102.8%
same,Total Related Substances,[1]; 6 Months,1.9%
same,pH,[1]; 6 Months,7.5
same,Individual Related Substances PT-112 Dimer,[1]; Initial,0.16%
same,Individual Related Substances RRT 0.28-0.29,[1]; Initial,0.14%
same,Individual Related Substances RRT 0.50-0.51,[1]; Initial,0.08%
same,Individual Related Substances RRT 0.58,[1]; Initial,0.34%
same,Individual Related Substances RRT 0.73-0.74,[1]; Initial,0.83%
same,Individual Related Substances RRT 0.92,[1]; Initial,0.05%
same,Individual Related Substances RRT 1.57,[1]; Initial,0.12%
same,Individual Related Substances RRT 3.66-3.71,[1]; Initial,"ND (ND = Not Detected, or <0.05%)"
same,Potency (Assay),[1]; Initial,102.0%
same,Total Related Substances,[1]; Initial,1.7%
same,pH,[1]; Initial,7.5
same,pKa values of the two acid groups (first),[2],approximately 2.6
same,pKa values of the two acid groups (second),[2],~4.4
same,"overall rate of (R,R)-pyrodach-2 degradation and impurity appearance",[3],dramatic decrease
same,hydrolytic degradation,[4],rapidly undergoes hydrolytic degradation
same,time by which crystallization observed in all sample vials,[5],≤ 12 months
